Where “and” joins values, the source holds several entries; their conditions need not be identical. Identical values can stand only once. Inconclusive results and toxic doses are left out. No stated cut-off is given here; in the data, active means T/C of 150% or more; inactive means T/C below 125%. Square brackets hold non-standard residues; d marks the D form. Peptide text beside a SMILES is read from it. βAla = NCCC(=O)O
Test system: L1210 leukemia ip in BDF1 mice, survival T/C
Assay: NCI In Vivo Anticancer Drug Screen. Data for tumor model L1210 Leukemia (intraperitoneal) in B6D2F1 (BDF1) mice
Conditions: endpoint: mean survival time, higher = longer survival
Outline: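 Transplanted-tumor mice were given test agent; controls received vehicle only. Survival readings from the two groups were divided (treated over control).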

[1] = dose: 25.0 mg/kg/injection, schedule: Q01DX009 (ip), vehicle: Klucel (hydroxypropylcellulose) (HPC)
[2] = dose: 100.0 mg/kg/injection, schedule: Q01DX009 (ip), vehicle: Klucel (hydroxypropylcellulose) (HPC)
[3] = dose: 100.0 mg/kg/injection, schedule: Q01DX001 (ip), vehicle: carboxymethylcellulose (CMC)
[4] = dose: 200.0 mg/kg/injection, schedule: Q01DX001 (ip), vehicle: carboxymethylcellulose (CMC)
[5] = dose: 100.0 mg/kg/injection, schedule: Q04DX002 (ip), vehicle: Klucel (hydroxypropylcellulose) (HPC)
[6] = dose: 200.0 mg/kg/injection, schedule: Q04DX002 (ip), vehicle: Klucel (hydroxypropylcellulose) (HPC)
[7] = dose: 400.0 mg/kg/injection, schedule: Q04DX002 (ip), vehicle: Klucel (hydroxypropylcellulose) (HPC)
[8] = dose: 12.5 mg/kg/injection, schedule: Q01DX009 (ip), vehicle: Klucel (hydroxypropylcellulose) (HPC)
[9] = dose: 50.0 mg/kg/injection, schedule: Q01DX009 (ip), vehicle: Klucel (hydroxypropylcellulose) (HPC)
[10] = dose: 100.0 mg/kg/injection, schedule: Q04DX002 (ip), vehicle: saline with Tween-80
[11] = dose: 200.0 mg/kg/injection, schedule: Q04DX002 (ip), vehicle: saline with Tween-80
[12] = dose: 400.0 mg/kg/injection, schedule: Q04DX002 (ip), vehicle: saline with Tween-80

Measured: T/C

CNC(=Nc1ccc(NC(=O)NC(=O)c2ccc(C(=O)NC(=O)Nc3ccc(N=C(NC)c4ccccc4)cc3)cc2)cc1)c1ccccc1
inactive: dose: 62.0 mg/kg/injection, schedule: Q01DX Z (ip), vehicle: carboxymethylcellulose (CMC) 88 % of control | dose: 125.0 mg/kg/injection, schedule: Q01DX Z (ip), vehicle: carboxymethylcellulose (CMC) 104 % of control | dose: 250.0 mg/kg/injection, schedule: Q01DX Z (ip), vehicle: carboxymethylcellulose (CMC) 92 % of control | dose: 500.0 mg/kg/injection, schedule: Q01DX Z (ip), vehicle: carboxymethylcellulose (CMC) 95 % of control

CCOC(=O)c1ccc(NC(=O)Nc2cccc(Cl)c2)cc1
inactive: dose: 3.0 mg/kg/injection, schedule: Q01DX009 (ip), vehicle: Klucel (hydroxypropylcellulose) (HPC) 94 % of control | dose: 6.0 mg/kg/injection, schedule: Q01DX009 (ip), vehicle: Klucel (hydroxypropylcellulose) (HPC) 107 % of control | dose: 12.0 mg/kg/injection, schedule: Q01DX009 (ip), vehicle: Klucel (hydroxypropylcellulose) (HPC) 94 % of control | [1] 101 % of control | [2] 93 % of control

CC(NC(=O)C(CCC(=O)O)NC(=O)C(N)Cc1ccc(O)cc1)C(=O)NCCC(=O)NC(Cc1ccc(O)cc1)C(=O)NC(CCC(=O)O)C(=O)NC(C)C(=O)NCCC(=O)NCC(=O)O (configuration not stated) (H-YEA[βAla]YEA[βAla]G-OH; configuration not given here)
inactive: dose: 50.0 mg/kg/injection, schedule: Q01DX001 (ip), vehicle: carboxymethylcellulose (CMC) 93 % of control | [3] 96 % of control | [4] 98 % of control

CCCCCCCCCCC(=O)N1CCCCC1
inactive: dose: 100.0 mg/kg/injection, schedule: Q04DX002 (ip), vehicle: saline 100 % of control | dose: 200.0 mg/kg/injection, schedule: Q04DX002 (ip), vehicle: saline 96 % of control | dose: 400.0 mg/kg/injection, schedule: Q04DX002 (ip), vehicle: saline 96 % of control

Cc1ccc(C(C)C)cc1OCO
inactive: dose: 20.0 mg/kg/injection, schedule: Q01DX Z (ip), vehicle: methylcellulose (MC) 98 % of control | dose: 30.0 mg/kg/injection, schedule: Q01DX Z (ip), vehicle: methylcellulose (MC) 105 % of control

Cc1ccc(N=Nc2ccc(C)cc2NC(=O)c2ccc(Cl)c(Cl)c2)cc1
inactive: [5] 120 % of control | [6] 103 % of control | [7] 97 % of control

O=C(Nc1ccccc1Cl)Nc1cccc2ccccc12
inactive: [5] 105 % of control | [6] 102 % of control | [7] 98 % of control

O=c1oc2ccccc2c(O)c1Cc1c(O)c2ccccc2oc1=O
inactive: [8] 99 % of control | [1] 86 % of control | [9] 86 % of control and 92 % of control

COC(=O)c1cc(-c2ccc(Cl)cc2)nc2c(C)cc(C)cc12
inactive: [3] 92 % of control | [4] 101 % of control | dose: 400.0 mg/kg/injection, schedule: Q01DX001 (ip), vehicle: carboxymethylcellulose (CMC) 89 % of control

CC1(C)SC2C(NC(=O)Cc3ccccc3)C(=O)N2C1C(=O)O (configuration not stated)
inactive: dose: 50.0 mg/kg/injection, schedule: Q01DX001 (ip), vehicle: saline 104 % of control | dose: 100.0 mg/kg/injection, schedule: Q01DX001 (ip), vehicle: saline 98 % of control and 107 % of control | dose: 100.0 mg/kg/injection, schedule: Q04DX003 (ip), vehicle: saline 101 % of control | dose: 200.0 mg/kg/injection, schedule: Q01DX001 (ip), vehicle: saline 96 % of control and 107 % of control | dose: 200.0 mg/kg/injection, schedule: Q04DX003 (ip), vehicle: saline 104 % of control | dose: 400.0 mg/kg/injection, schedule: Q01DX001 (ip), vehicle: saline 98 % of control | dose: 400.0 mg/kg/injection, schedule: Q04DX003 (ip), vehicle: saline 104 % of control

C/C(=N\N=C(/C)c1ccc(C)cc1C)c1ccc(C)cc1C
inactive: [10] 98 % of control | [11] 95 % of control | [12] 103 % of control

COc1cc(C=O)cc(Br)c1O
inactive: [10] 97 % of control | [11] 93 % of control | [12] 87 % of control

CCCC(C)NCCOC(=O)Nc1ccccc1 (configuration not stated)
inactive: dose: 75.0 mg/kg/injection, schedule: Q01DX001 (ip), vehicle: saline 91 % of control | dose: 150.0 mg/kg/injection, schedule: Q01DX001 (ip), vehicle: saline 101 % of control

CCC1(O)CC2c3ccccc3CCN2CC1CC(C)C (configuration not stated)
inactive: [8] 101 % of control | [1] 116 % of control | dose: 25.0 mg/kg/injection, schedule: Q04DX003 (ip), vehicle: Klucel (hydroxypropylcellulose) (HPC) 110 % of control | [9] 108 % of control | dose: 50.0 mg/kg/injection, schedule: Q04DX003 (ip), vehicle: Klucel (hydroxypropylcellulose) (HPC) 98 % of control | [2] 121 % of control | dose: 100.0 mg/kg/injection, schedule: Q04DX003 (ip), vehicle: Klucel (hydroxypropylcellulose) (HPC) 113 % of control | dose: 200.0 mg/kg/injection, schedule: Q04DX003 (ip), vehicle: Klucel (hydroxypropylcellulose) (HPC) 107 % of control

— PubChem BioAssay AID248 (DTP/NCI, 2004)
